Marks after values point to notes of the source that are not given here.
Legend:
[1] = tested on: plasma LH; assay: Example III: plasma LH after letrozole IV or IM; assay type: in vivo, cattle; conditions: 1 mg/kg IV or IM vs placebo
Experimental: (§1) Ovarian cyclicity in heifers was synchronized using transvaginal ultrasound-guided follicular ablation followed by a double dose of PGF 4 days after ablation. The ovaries were examined daily by transrectal ultrasonography to detect ovulation. Three days after ovulation, heifers were assigned randomly to four treatment groups and given letrozole at a dose of 1 mg/kg intravenously (in benzyl alcohol, n=10) or intramuscularly (in benzyl alcohol plus canola oil 1:1 v/v, n=10), or given a placebo intravenously (benzyl alcohol, n=5) or intramuscularly (benzyl alcohol plus canola oil 1:1 v/v, n=5). Ovarian structures were monitored by ultrasonography and blood samples were collected by jugular venipuncture twice daily from pre-treatment to post-treatment ovulations. Comparisons among groups were made by one-way ANOVA for single-point measurements and by ANOVA for repeated measures for time-series data.
(§2) Blood samples collected daily from treatment to post-treatment ovulation.
(§3) Endpoints are: Follicular diameter profiles; CL diameter profile; Circulating progesterone concentration; Circulating FSH and LH profiles; Letrozole profile and bioavailability; Circulating estradiol concentration Follicular fluid estradiol concentration).

[2] = tested on: plasma LH; assay: Example I: plasma LH by double-antibody radioimmunoassay after single iv dose; assay type: in vivo, cattle; conditions: for plasma LH concentrations compared to saline-treated controls: doses combined
Experimental: (§4) Heifers in which a CL was detected during the initial examination were given […] cloprostenol (PGF, Estrumate™, Schering-Plough Animal Health, Pointe-Claire, QC, Canada) intramuscularly (im) to induce regression of the CL and to synchronize ovulation. Heifers were examined daily by transrectal ultrasonography to detect ovulation. Transvaginal ultrasound-guided follicular aspiration of follicles ≧5 mm was performed five to eight days after ovulation to synchronize wave emergence. Heifers were examined daily by transrectal ultrasonography to detect follicular wave emergence, which was expected 1 to 1.5 days after follicular ablation. Four days after follicular ablation (approximately 2.5 days after follicular wave emergence), and at the time follicular dominance becomes apparent, heifers were assigned randomly to the following treatment groups and given a single intravenous dose of 1) 500 μg/kg of letrozole (high dose group, n=9), 2) 250 μg/kg of letrozole (medium dose group, n=10), 3) 125 μg/kg of letrozole (low dose group, n=10), or 4) 20 ml of phosphate buffered saline (PBS control group, n=10). For practical purposes, the dose of letrozole was calculated based on an average weight of 400 kg for all heifers. The average oral dose used in women (2.5-5 mg per day for 5 days) was used to estimate the medium dose for cattle. The high and low doses were set as double and half the medium dose, respectively. The day of treatment was defined as Day 0. For intravenous injection, letrozole was prepared in 95% ethanol at a final concentration of 5 mg per ml, resulting in an injection volume of 10-40 ml. The experiment was performed in four replicates (n=2-3 per group per replicate) and each heifer was used only once.
(§5) Statistical analyses were done using the Statistical Analysis System software package (SAS Learning Edition 9.1, 2006; SAS Institute Inc., Cary, N.C., USA). Time-series hormone data, plasma letrozole concentration, and follicular diameter profiles were analyzed by repeated measures, using the PROC MIXED procedure. The main effects were treatment (high, medium and low dose, and control), time, and their interactions.

[3] = tested on: circulating estradiol; conditions: post-menopausal women [30]; cited from earlier work
[4] = tested on: heifers; assay: Example IV: intravaginal device containing 1 g letrozole in heifers, ovulation and ovarian structures; assay type: in vivo, cattle
Experimental: To test the hypothesis that letrozole treatment during the preovulatory stage, initiated prior to onset of follicular selection and prolonged for a 7-day period will be able to induce the development of more than one follicle to a preovulatory size and to delay the occurrence of ovulation. To develop a practical route of administration of letrozole in cattle.
Five to eight days after PGF-induced ovulation, FA was performed followed by a double dose of PGF 60 and 72 hr later. Heifers were randomly divided into two groups and received from Day 1 (Day 0=wave emergence) until Day 7 or until ovulation is detected: • intravaginal device containing 1 g of letrozole (n=15) • Intravaginal blank device (letrozole free, n=15)
Transrectal ultrasound examination and blood sample collection were performed daily from day of ablation until Day 12 post-ovulation. blood samples were collected frequently at the time of catheter placement, at 0, 10, 20, 30 min, 1, 1.5, 2, 3, 4, 6, 8, 12 and 24 hours post-treatment

[5] = tested on: plasma progesterone; assay: Example III: plasma progesterone after letrozole IM; assay type: in vivo, cattle; conditions: 1 mg/kg IM; P<0.06
Experimental: as §1, §2, §3

[6] = tested on: plasma estradiol; assay: Example I: plasma estradiol by ELISA after single iv dose; assay type: in vivo, cattle; conditions: doses combined
Experimental: as §4, §5

[7] = tested on: Hereford-cross beef heifers; assay: Example I: single intravenous dose of letrozole in heifers, ovarian ultrasonography (follicle and CL dynamics); assay type: in vivo, cattle
Experimental: Hereford-cross beef heifers, 14 to 20 months of age and weighing between 295 and 450 kg, were chosen from a herd of 50 heifers maintained in outdoor corrals at the University of Saskatchewan Goodale Research Farm (52° North and 106° West). Heifers were fed alfalfa/grass hay and grain to gain approximately 1.3 Kg per day and had water ad libitum during the experimental period from July to October. Heifers were initially examined by transrectal ultrasonography (7.5 MHz linear-array transducer, Aloka SSD-900; Tokyo, Japan) to confirm that they were postpubertal by observing the presence of a CL [33].
as §4
The observations from ultrasound examination were recorded on a sketch sheet in which each ovary and its structures (CL and follicles ≧4 mm in diameter) were represented in size and location. Ovulation was defined as the disappearance of any follicle ≧8 mm between two consecutive daily examinations, and was confirmed by the subsequent development of a CL [33]. Follicular wave emergence was defined retrospectively as the day when the dominant follicle was first identified at a diameter of 4 or 5 mm. If the dominant follicle was not identified until it reached 6 or 7 mm, the previous day was considered day of the follicular wave emergence. The dominant follicle of a wave was defined as the largest antral follicle of that wave after deviation, and the first subordinate follicle as the second largest antral follicle of that wave. The day of onset of follicular and luteal regression was defined as the first day of an apparent constant decrease in follicular and luteal diameters, respectively.
as §5

[8] = tested on: heifers; assay: Example III: letrozole 1 mg/kg intravenously or intramuscularly in heifers, ovarian ultrasonography; assay type: in vivo, cattle; conditions: for Interwave Interval / Interovulatory Interval: mean±SEM
Experimental: as §1
Transrectal ultrasonography: daily from PGF treatment to the first ovulation post-treatment.
as §3

Compound: N#Cc1ccc(C(c2ccc(C#N)cc2)n2cncn2)cc1 [Letrozole, letrozole]
- plasma LH concentrations among groups [1]: did not differ
- plasma LH concentrations compared to saline-treated controls ([2]; 4-day period after single iv dose, P=0.01): higher
- plasma LH concentrations compared to saline-treated controls ([2]; first 12 hours following single iv dose, P=0.05): higher
- duration of elevated LH levels after treatment ([2]; single iv dose): at least 4 days
- time after letrozole at which endogenous LH began to rise ([2]; single iv dose): 2 h
- reduction in circulating estradiol concentrations [3]: 97-99%
- size of the ovulated dominant follicle (DF) [4]: larger DF
- delay of ovulation ([4]; Day 1 to Day 7 of pre-ovulatory wave): 24 h
- plasma progesterone concentrations vs IM controls [5]: tended to be higher
- plasma estradiol concentration ([6]; 0 hours (at treatment), mean±SEM): 15.2 ± 3.01 pg/mL
- plasma estradiol concentration ([6]; 24 hours after single iv dose, P=0.03 vs 0 hours): 8.0 ± 1.51 pg/mL
- decrease of plasma estradiol from 0 to 24 hours after treatment ([6]; single iv dose): ~50%
- mean plasma estradiol over the 4-day period after treatment compared to controls ([6]; single iv dose, P=0.06): tended to be higher
- number of heifers in which the extant dominant follicle ovulated ([7]; high dose 500 μg/kg iv): 5/9
- number of heifers in which the extant dominant follicle ovulated ([7]; low dose 125 μg/kg iv): 7/10
- number of heifers in which the extant dominant follicle ovulated ([7]; medium dose 250 μg/kg iv): 5/10
- dominant follicle diameter profile compared to control heifers ([7]; single iv dose, all dose groups combined (n=29) vs saline controls, P<0.04): larger
- diameter to which the dominant follicle grew ([7]; single iv dose, dose groups combined, control 9.7±0.55, mean±SEM): 11.0±0.32 mm
- Treatment to onset of regression of extant dominant follicle ([7]; single iv dose, doses combined, n=13, mean±SEM): 8.7 ± 0.47^a days
- Treatment to ovulation of extant dominant follicle ([7]; single iv dose, doses combined, n=16, mean±SEM): 9.0 ± 0.42^a days
- Treatment to wave emergence ([7]; single iv dose, low-, medium-, high-dose combined, n=29, mean±SEM): 7.5 ± 0.27^a days
- Interwave Interval ([8]; 1 mg/kg IM in benzyl alcohol plus canola oil): 11.7 ± 0.34^b Days
- Interwave Interval ([8]; 1 mg/kg IM in benzyl alcohol plus canola oil, listed as letrozole): 11.7 days
- day-to-day diameter profile of the corpus luteum vs IM controls ([8]; 1 mg/kg IM, P<0.05): larger
- Interovulatory Interval ([8]; 1 mg/kg IM): 19.7 ± 0.83 days
- Interwave Interval ([8]; 1 mg/kg IV in benzyl alcohol): 10.6 ± 0.30^a,b Days
- Interwave Interval ([8]; 1 mg/kg IV in benzyl alcohol, listed as letrozole): 10.6 days
- day-to-day diameter profile of the dominant follicle among groups ([8]; 1 mg/kg IV or IM vs placebo, Day 3 after ovulation): not different
- Interovulatory Interval ([8]; 1 mg/kg IV): 18.9 ± 0.70 days

From patent US9144569B2, “Methods of administering an aromatase inhibitor, prostaglandin and GnRH for regulating ovulation in cattle” (UNIVERSITY OF SASKATCHEWAN, priority 2010, dated 2015)
